The experiment has as its target T1, recombinant human Lysyl Oxidase-Like 2 (LOXL2) (Homo sapiens, UniProt Q9Y4K0).
T1 construct: purchased R&D systems
T1 sequence (Q9Y4K0 26-774): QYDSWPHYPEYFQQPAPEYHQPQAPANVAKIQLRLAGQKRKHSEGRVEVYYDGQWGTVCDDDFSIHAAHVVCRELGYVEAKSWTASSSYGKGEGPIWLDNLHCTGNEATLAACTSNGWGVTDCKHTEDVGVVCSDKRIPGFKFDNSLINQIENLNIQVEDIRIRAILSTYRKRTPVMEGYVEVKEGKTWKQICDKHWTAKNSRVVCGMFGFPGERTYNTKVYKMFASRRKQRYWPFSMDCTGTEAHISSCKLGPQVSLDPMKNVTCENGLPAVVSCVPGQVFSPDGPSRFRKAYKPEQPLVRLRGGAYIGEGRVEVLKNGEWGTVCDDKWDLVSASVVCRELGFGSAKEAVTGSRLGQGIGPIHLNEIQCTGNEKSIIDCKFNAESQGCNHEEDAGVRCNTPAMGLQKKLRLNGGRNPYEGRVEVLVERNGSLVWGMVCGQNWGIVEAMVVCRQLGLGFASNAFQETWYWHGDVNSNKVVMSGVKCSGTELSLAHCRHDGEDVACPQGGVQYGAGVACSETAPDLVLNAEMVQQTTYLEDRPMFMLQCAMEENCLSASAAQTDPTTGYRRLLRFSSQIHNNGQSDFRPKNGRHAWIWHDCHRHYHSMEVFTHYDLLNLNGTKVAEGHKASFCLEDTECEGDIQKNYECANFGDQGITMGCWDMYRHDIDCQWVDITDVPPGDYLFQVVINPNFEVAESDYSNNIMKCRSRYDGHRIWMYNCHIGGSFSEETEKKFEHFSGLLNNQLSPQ
The experiment in a line: Amplex Red HRP-coupled amine oxidase assay, recombinant human LOXL2. The experiment is classed as biochemical. Particulars: 60 min incubation with enzyme at 37° C., putrescine substrate, read-out: Inhibitory activity (IC50, nM) human LOXL2. The protocol:
The activities of the compounds according to the present invention against recombinant human Lysyl Oxidase-Like 2 (recombinant human LOXL2, R&D systems) were evaluated by measuring the levels of hydrogen peroxide in the HRP (horseradish peroxidase) coupled reactions, with the Amplex Red Hydrogen Peroxide Assay Kit (Molecular Probes, Invitrogen, USA). The tests were carried out at 37° C., and putrescine was used as a substrate. In the HRP coupling reaction, the oxidation of 10-acetyl-3,7-dihydroxyphenoxazine (Amplex Red reagent) by hydrogen peroxide generates a fluorescent product, i.e., resorufin. Briefly, the test compounds were dissolved in dimethyl sulfoxide (DMSO) at a concentration of 20 mM. Dose-response measurements were carried out by serial dilutions in DMSO to generate a six-point curve. The upper concentration was adjusted according to the potency of the compound, and then diluted with the reaction buffer to obtain a final DMSO concentration of 1%. Purified human LOXL2 in 50 mM sodium phosphate buffer (pH7.4) was added to each well of a 96 well black plate. The test compounds dissolved in DMSO were incubated with the human LOXL2 enzyme at 37° C. for 60 minutes. After the incubation for 60 minutes, a reaction mixture containing 400 μM Amplex Red reagent, 30 mM putrescine, and 2 U/mL HRP in 50 mM sodium phosphate buffer (pH 7.4) was added to each well. Fluorescence was measured with a microplate reader (Flexstation3, Molecular Devices), under the conditions of excitation at 530 nm and emission at 590 nm, 1 hour after the addition of the mixture. Inhibition by each compound was measured as % reduction in signal, compared to the control without an inhibitor (diluted DMSO only). The data were fixed to a four-variable logistic model, and […] values were calculated using the GraphPad Prism program.

Counter-ions that a name gives are not always drawn.

Take `CONC(=O)c1cc(-c2cccc(S(=O)(=O)N3CCCC3)c2)c2nnn(C/C(F)=C/CN)c2c1` [Example 133, (Z)-1-(4-amino-2-fluorobut-2-en-1-yl)-N-methoxy-4-(3-(pyrrolidin-1-ylsulfonyl)phenyl)-1H-benzo[d][1,2,3]triazol-6-carboxamide hydrochloride]: the IC50 – broadly, the point on the concentration scale where inhibition reaches its midpoint – was determined as 24.4 nM.

Turning to `CNS(=O)(=O)c1ccc(OC)c(-c2cc(C(=O)NOC)cc3c2nnn3C/C(F)=C/CN)c1` [Example 134, (Z)-1-(4-amino-2-fluorobut-2-en-1-yl)-N-methoxy-4-(2-methoxy-5-(N-methylsulfamoyl)phenyl)-1H-benzo[d][1,2,3]triazol-6-carboxamide hydrochloride], the 50% inhibitory concentration (IC50) amounted to 8 nM. Take `CCN(CC)S(=O)(=O)c1ccc(OC)c(-c2cc(C(=O)NOC)cc3c2nnn3C/C(F)=C/CN)c1` [Example 135, (Z)-1-(4-amino-2-fluorobut-2-en-1-yl)-4-(5-(N,N-diethylsulfamoyl)-2-methoxyphenyl)-N-m ethoxy-1H-benzo[d][1,2,3]triazol-6-carboxamide hydrochloride]: the IC50 was 35.6 nM. Under `CONC(=O)c1cc(-c2cc(S(=O)(=O)NC3CC3)ccc2OC)c2nnn(C/C(F)=C/CN)c2c1` [Example 136, (Z)-1-(4-amino-2-fluorobut-2-en-1-yl)-4-(5-(N-cyclopropylsulfamoyl)-2-methoxyphenyl)-N-methoxy-1H-benzo[d][1,2,3]triazol-6-carboxamide hydrochloride] stands 6.4 nM; under `CON(C)C(=O)c1cc(-c2cccc(S(=O)(=O)N3CCCC3)c2)c2nnn(C/C(F)=C/CN)c2c1` [Example 137, (Z)-1-(4-amino-2-fluorobut-2-en-1-yl)-N-methoxy-N-methyl-4-(3-(pyrrolidin-1-ylsulfonyl)phenyl)-1H-benzo[d][1,2,3]triazol-6-carboxamide hydrochloride], 37 nM. As for `CCN(CC)S(=O)(=O)c1ccc(OC)c(-c2cc(C(=O)N(C)OC)cc3c2nnn3C/C(F)=C/CN)c1` [Example 138, (Z)-1-(4-amino-2-fluorobut-2-en-1-yl)-4-(5-(N,N-diethylsulfamoyl)-2-methoxyphenyl)-N-m ethoxy-N-methyl-1H-benzo[d][1,2,3]triazol-6-carboxamide hydrochloride], the IC50 came to 54.3 nM. With `CON(C)C(=O)c1cc(-c2cccc(S(=O)(=O)N(C)C)c2)c2nnn(C/C(F)=C/CN)c2c1` [Example 139, (Z)-1-(4-amino-2-fluorobut-2-en-1-yl)-4-(3-(N,N-dimethylsulfamoyl)phenyl)-N-methoxy-N-methyl-1H-benzo[d][1,2,3]triazol-6-carboxamide], the IC50 stood at 69.6 nM. With `CCn1nccc1-c1cc(C(F)(F)F)cc2c1ncn2C/C(F)=C/CN` [Example 177, (Z)-4-(4-(1-ethyl-1H-pyrazol-5-yl)-6-(trifluoromethyl)-1H-benzo[d]imidazol-1-yl]-3-fluoro-but-2-en-1-amine hydrochloride], the half-maximal inhibitory concentration (IC50) was found to be 419 nM.

Regarding `CC(C)n1nccc1-c1cc(C(F)(F)F)cc2c1ncn2C/C(F)=C/CN` [Example 178, (Z)-3-fluoro-4-(4-(1-isopropyl-1H-pyrazol-5-yl)-6-(trifluoromethyl)-1H-benzo[d]imidazol-1-yl)but-2-en-1-amine hydrochloride], the half-maximal inhibitory concentration (IC50) is 463 nM. `Cn1nc(C(F)(F)F)cc1-c1cc(C(F)(F)F)cc2c1ncn2C/C(F)=C/CN` [Example 179, (Z)-3-fluoro-4-(4-[1-methyl-3-(trifluoromethyl)-1H-pyrazol-5-yl]-6-(trifluoromethyl)-1H-benzo[d]imidazol-1-yl)but-2-en-1-amine hydrochloride]: the IC50 is 506 nM. With `NC/C=C(\F)Cn1cnc2c(-c3cnn(CCO)c3)cc(C(F)(F)F)cc21` [Example 180, (Z)-2-(4-(1-(4-amino-2-fluorobut-2-en-1-yl)-6-(trifluoromethyl)-1H-benzo[d]imidazol-4-yl)-1H-pyrazol-1-yl)ethan-1-ol hydrochloride], the concentration for half-maximal inhibition (IC50) stood at 323 nM.

Values taken from US12686665B2, “Bicyclic fused ring derivative or salt thereof and pharmaceutical composition comprising same” (YUHAN CORPORATION, priority 2021, dated 2026).
